In patent US20250011715A1, “METHOD FOR PRODUCING INNER EAR STRIA VASCULARIS MARGINAL CELLS, CHEMICAL AGENT ASSESSMENT METHOD, AND CELL CULTURE FOR ASSESSING CHEMICAL AGENT” (THE KITASATO INSTITUTE, priority 2021, published 2025):

Experiments:
[1] = system: inner ear stria vascularis marginal cells (cell mass after suspension culture) from human iPS cells; conditions: HBSS containing 2 mM EDTA, on ice 15 minutes, 4 kDa FITC-Dextran 2 mg/mL, Day 61, versus EDTA non-treatment; FIG. 18
Method: The inner ear progenitor cells were obtained from human iPS cells by the same method as in Test Example 1, and suspension culture was continued until the 49th day (Day 61) after the start of the suspension culture by the same method as in Test Example 2 using the inner ear progenitor cells.
For the obtained cells, a barrier function assay was performed. Specifically, the culture after the suspension culture was put into a microtube having a volume of 1.5 mL for each cell, and centrifuged, the culture medium was discarded, and 0.5 mL of HBSS containing 2 mM EDTA was added. In addition, as a control, a sample to which HBBS containing no EDTA was added was also prepared under the same conditions. Each of the samples was placed on ice for 15 minutes, and then 4 kDa FITC-Dextran was added to each of the samples to a concentration of 2 mg/mL, and the samples were suspended and immediately observed with a confocal microscope.

OTX2 gene = OTX2 gene expression by qPCR during differentiation induction into inner ear stria vascularis marginal cells; format: cell-based, human; conditions: Day 60; insulin-free medium (N21-Ins) versus B27+N2 medium and insulin-free medium with 1.5 μM insulin added from Day 20; FIG. 17
Method: The differentiation from human iPS cells into inner ear progenitor cells was induced by the same method as in Test Example 1, the cells on the 12th day (Day 12) from the start of the differentiation induction were detached off with Accutase, an equal amount of PBS was added thereto, the cells were passed through a nylon mesh (pore size: 40 μm), and the number of cells was counted with a hemocytometer.
The cells were suspended to a concentration of 5×10^5 cells/10 mL and seeded in a low adhesion 6-well plate (trade name “Corning Ultra-Low Attachment Plate”, Corning Inc.), and suspension culture was started under low oxygen conditions (4% of O2, 5% of CO2). […]
In any of the above Conditions 1) to 3), the cells on the 48th day (Day 60) after the start of the suspension culture were collected, and the expression level of the OTX2 gene, which is known to be expressed on the Reissner's membrane, which is an inner ear organ, and known to be poorly expressed in the inner ear stria vascularis marginal cells, was quantified by qPCR in the same manner as in Test Example 1.

Row | Compound | barrier function between cells (transfer of FITC-Dextran to the inside of the cell mass) [1] | expression level of OTX2 (OTX2 gene)
1 | O=C(O)CN(CCN(CC(=O)O)CC(=O)O)CC(=O)O [EDTA] | calcium-dependent barrier function was impaired | –
2 | insulin | – | low in a case where the culture medium did not contain insulin as compared with a case where insulin was contained in the culture medium
